According to patent US4555519A, “Thromboxane synthetase enzyme inhibiting N-[(1H-imidazol-1-yl) and (1H-1,2,4-triazol-1-yl)alkyl]pyridinecarboxamides” (American Cyanamid Company, priority 1984, dated 1985):

Tests used:
[1] = biological target: T1, thromboxane synthetase enzyme (Rattus norvegicus, UniProt P49430); assay: inhibition of thromboxane (TXA2) formation, TXB2 determined by direct radioimmunoassay in washed rat platelets; type: cell-based, Okamoto-Aoki spontaneously hypertensive rats (SHR); conditions: Dose 10^-4 M; SHR platelets, 10 minutes at 37° C.
T1 construct: endogenous in cells; host or cells: washed platelets from arterial blood of Okamoto-Aoki spontaneously hypertensive rats (Taconic Farms, Germantown, NY)
T1 sequence (P49430 1-533): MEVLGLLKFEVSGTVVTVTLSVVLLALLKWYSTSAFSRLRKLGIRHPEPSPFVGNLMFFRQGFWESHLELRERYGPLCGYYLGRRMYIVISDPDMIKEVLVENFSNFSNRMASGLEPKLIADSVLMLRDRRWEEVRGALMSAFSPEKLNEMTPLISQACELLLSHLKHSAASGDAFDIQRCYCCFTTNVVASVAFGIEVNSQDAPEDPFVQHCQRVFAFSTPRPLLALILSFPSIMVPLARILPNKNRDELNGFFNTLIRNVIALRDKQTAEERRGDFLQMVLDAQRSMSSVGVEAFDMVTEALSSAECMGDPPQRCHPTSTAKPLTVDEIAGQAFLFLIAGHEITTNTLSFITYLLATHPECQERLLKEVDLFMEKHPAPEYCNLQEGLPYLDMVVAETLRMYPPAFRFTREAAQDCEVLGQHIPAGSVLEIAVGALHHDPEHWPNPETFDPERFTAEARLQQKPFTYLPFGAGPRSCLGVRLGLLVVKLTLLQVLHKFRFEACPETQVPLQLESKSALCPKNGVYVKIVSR
Procedure: The inhibition of thromboxane (TXA2) formation was studied by determining the concentration of thromboxane B2 (TXB2), the stable hydrolysis product of TXA2.
Under urethan anesthesia, […] of arterial blood was collected in one ml of 3.2% sodium citrate in a polystyrene tube from Okamoto-Aoki spontaneously hypertensive rats (SHR) (Taconic Farms, Germantown, NY) between 19 and 24 weeks in age. The blood was diluted with 3 ml cold saline and centrifuged at room temperature for 15 minutes at 460 xg. The platelet rich plasma (PRP) was separated. The platelets were isolated by centrifuging the PRP for 10 minutes at 1060 xg and were washed in 4 ml cold oxygenated Krebs phosphate buffer, pH 7.4. The chilled platelets recovered from centrifuging at 800 xg for 10 minutes were resuspended in oxygenated Krebs phosphate buffer and diluted to contain 4.5-6.0×10^4 platelets/μl. Assay samples, prepared on ice, contained 200 μl platelet suspension, 50 μl saline, and 50 μl vehicle or drug under study (OKY-1581, UK-37248-01, 1-benzylimidazole, or indomethacin). The samples were incubated for 10 minutes at 37° C. in a metabolic shaker. The reaction was terminated by immersing the tubes in an ice bath and adding 50 μl of 0.5M citric acid. The samples were centrifuged for 10 minutes in a refrigerated centrifuge and the supernatants thus obtained were decanted and stored at -20° C. The TXB2 content for each sample was determined by a direct radioimmunoassay (RIA) utilizing a TXB2 specific RIA kit purchased from New England Nuclear, Boston, Mass. and expressed as pg TXB2 formed minute^-1 sample^-1, from which the percent inhibition of TXB2 formation was calculated.

[2] = hypotensive activity in spontaneously hypertensive rats, mean arterial blood pressure (method of Chan and Poorvin); type: in vivo; conditions: gavage, 100 mg/kg or less, two doses 24 hours apart; measured 28 hours after initial dose; average MABP of rats used 160±1.5 mm Hg; (no. of rats) in parentheses
Procedure: The novel compounds of the present invention also are active antihypertensive agents and were tested for hypotensive activity by the method of P. S. Chan and D. Poorvin, Clinical and Experimental Hypertension, 1 (6), 817-830 (1979). Male, 16 week old, spontaneously hypertensive rats of the Okamoto strain, from Taconic Farms, Germantown, N.Y., having an average mean arterial blood pressure of 160±1.5 mm of mercury are used in the test. One to three rats are used per test compound. A rat is dosed by gavage with a test compound, suspended in 2% pre-boiled starch at a concentration of 50 mg/ml, at a dose of 100 mg/kg of body weight or less with 0.9% sodium chloride loading at a dose of 25 ml/kg of body weight. A second identical dose of the test compound without sodium chloride loading is given 24 hours later. At 28 hours after the initial dose the mean arterial blood pressure is measured by the method of Chan and Poorvin vide supra. The procedure is repeated in a second and third rat when necessary.

SMILES | inhibition at 100 µM [1] | MABP in mm Hg [2]
O=C(NCCCn1ccnc1)c1cccnc1Cl [2-Chloro-N--[3-(1H--imidazol-1-yl)propyl]-3-pyridinecarboxamide] | 58% | 
Cc1cn(CCCNC(=O)c2cccnc2Cl)cn1 [2-Chloro-N--[3-(4-methyl-1H--imidazol-1-yl)propyl]-3-pyridinecarboxamide] | 50% | 
O=C(NCCCCn1ccnc1)c1cccnc1Cl [2-Chloro-N--[4-(1H--imidazol-1-yl)butyl]-3-pyridinecarboxamide] | 90% | 
Cc1nccn1CCCNC(=O)c1cccnc1Cl [2-Chloro-N-[3-(2-methyl-1H-imidazol-1-yl)propyl]-3-pyridinecarboxamide] | 38% | 
O=C(NCCCn1ccnc1)c1ccc(Cl)nc1 [6-Chloro-N--[3-(1H--imidazol-1-yl)propyl]-3-pyridinecarboxamide] | 88% | 132 mm Hg
O=C(NCCCCn1ccnc1)c1ccc(Cl)nc1 [6-Chloro-N--[4-(1H--imidazol-1-yl)butyl]-3-pyridinecarboxamide] | 94% | 
O=C(NCCCn1cncn1)c1ccc(Cl)nc1 [6-Chloro-N-[3-(1H-1,2,4-triazol-1-yl)propyl]-3-pyridinecarboxamide] | 67% | 140 mm Hg
CC(CNC(=O)c1ccc(Cl)nc1)Cn1ccnc1 (stereo not shown) [6-Chloro-N-[3-(1H-imidazol-1-yl)-2-methylpropyl]-3-pyridinecarboxamide] | 98% | 129 mm Hg

Continued, in another order:

inhibition at 100 µM [1] | SMILES | MABP in mm Hg [2]
98% | CC(CCNC(=O)c1ccc(Cl)nc1)n1ccnc1 (stereo not shown) [6-Chloro-N-[3-(1H-imidazol-1-yl)butyl]-3-pyridinecarboxamide] | 111 mm Hg
44% | Cc1nccn1CCCNC(=O)c1ccc(Cl)nc1 [6-Chloro-N-[3-(2-methyl-1H-imidazol-1-yl)propyl]-3-pyridinecarboxamide] | 
56% | O=C(NCCCn1ccnc1-c1ccccc1)c1ccc(Cl)nc1 [6-Chloro-N-[3-(2-phenyl-1H-imidazol-1-yl)propyl]-3-pyridinecarboxamide] | 
86% | Cc1cn(CCCNC(=O)c2ccc(Cl)nc2)cn1 [6-Chloro-N-[3-(4-methyl-1H-imidazol-1-yl)propyl]-3-pyridinecarboxamide] | 139 mm Hg
83% | O=C(NCCCn1ccnc1)c1cccnc1 [N--[3-(1H--Imidazol-1-yl)propyl]-3-pyridinecarboxamide] | 138 mm Hg
84% | Cc1cn(CCCNC(=O)c2ccccn2)cn1 [N--[3-(4-Methyl-1H--imidazol-1-yl)propyl]-2-pyridinecarboxamide] | 140 mm Hg
50% | Cc1cn(CCCNC(=O)c2cccnc2)cn1 [N--[3-(4-Methyl-1H--imidazol-1-yl)propyl]-3-pyridinecarboxamide] | 123 mm Hg
59% | O=C(NCCCn1ccnc1)c1ccccn1 [N-[3-(1H-Imidazol-1-yl)propyl]-2-pyridinecarboxamide] | 127 mm Hg
30% | O=C(NCCCn1ccnc1-c1ccccc1)c1ccccn1 [N-[3-(2-Phenyl-1H-imidazol-1-yl)propyl]-2-pyridinecarboxamide] | 
82% | O=C(NCCCCn1ccnc1)c1ccccn1.O=C(O)/C=C/C(=O)O [N-[4-(1H-Imidazol-1-yl)butyl]-2-pyridinecarboxamide, fumarate] | 116 mm Hg
